From patent publication US20160102336A1, “FLUORESCENT PROBE FOR DETECTING ACTIVITY OF CALPAIN” (THE UNIVERSITY OF TOKYO, priority 2013, published 2016)
*1 amine or outer side, *2 acyl side, *3 side chain or, on linkers, in order; H or OH if unused. Where a SMILES comes first, the peptide text is derived from it. The star is where a group is joined. X1 = Cc1ccccc1C1=C2C=CC(=N)C=C2[Si](C)(C)c2cc(N*)ccc21; Suc = O=C(CCC(=O)[*:2])[*:1]

How the values were obtained:
[1] = Measurement of the optical characteristics; assay type: physicochemical; conditions: for Absmax / Emmax / Φn / ε: 0.1 sodium phosphate buffer with pH 3 containing 1% DMSO
Protocol: The optical characteristics of Suc-LLVY-SiR600 and Boc-LM-SiR600 were measured in a 0.1 sodium phosphate buffer with pH 3 containing 1% DMSO.

calpain-1 = target: T1, calpain-1 (Homo sapiens, UniProt P07384); assay: Evaluation as a calpain fluorescent probe (fluorescence spectrum after addition of calpain-1); assay type: biochemical
T1 sequence (P07384 1-714): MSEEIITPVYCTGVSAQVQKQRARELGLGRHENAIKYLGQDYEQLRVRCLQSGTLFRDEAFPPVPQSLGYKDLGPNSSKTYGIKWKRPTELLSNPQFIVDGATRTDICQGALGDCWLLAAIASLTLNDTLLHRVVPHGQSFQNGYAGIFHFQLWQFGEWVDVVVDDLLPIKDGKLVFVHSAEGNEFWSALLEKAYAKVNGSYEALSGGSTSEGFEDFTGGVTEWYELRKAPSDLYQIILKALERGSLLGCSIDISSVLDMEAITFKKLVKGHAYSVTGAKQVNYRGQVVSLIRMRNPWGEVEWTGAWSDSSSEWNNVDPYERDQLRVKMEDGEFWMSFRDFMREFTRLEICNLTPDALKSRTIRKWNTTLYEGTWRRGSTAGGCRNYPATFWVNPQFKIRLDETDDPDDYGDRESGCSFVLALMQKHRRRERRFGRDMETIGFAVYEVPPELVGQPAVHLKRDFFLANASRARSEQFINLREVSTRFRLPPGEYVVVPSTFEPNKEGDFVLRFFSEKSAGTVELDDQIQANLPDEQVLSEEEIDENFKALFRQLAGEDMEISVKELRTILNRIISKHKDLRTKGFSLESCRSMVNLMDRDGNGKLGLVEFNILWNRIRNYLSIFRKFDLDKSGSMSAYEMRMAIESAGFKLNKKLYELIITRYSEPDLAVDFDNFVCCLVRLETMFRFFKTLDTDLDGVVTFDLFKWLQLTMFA
T1 sequence (P04632 1-268 partner): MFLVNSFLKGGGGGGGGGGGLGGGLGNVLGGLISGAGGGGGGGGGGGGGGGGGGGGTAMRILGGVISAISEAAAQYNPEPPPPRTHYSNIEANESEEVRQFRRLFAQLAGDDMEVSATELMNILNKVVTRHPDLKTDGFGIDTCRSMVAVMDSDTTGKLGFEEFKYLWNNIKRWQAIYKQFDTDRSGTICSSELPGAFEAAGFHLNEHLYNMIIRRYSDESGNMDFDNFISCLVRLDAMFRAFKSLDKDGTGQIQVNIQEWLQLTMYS
Protocol: FIGS. 1(c) to 1(e) show the fluorescence spectrum 10 to 60 minutes later from addition of 5 μg calpain-1 to the Suc-LLVY-SiR600 solution (2 μM).
In FIGS. 1(b) to 1(e), the reaction was carried out in a 0.75-mL of 20-mM HEPES buffer solution (pH 7.4) containing 100-μM DTT, 10% glycerol, 0.1% CHAPS, 100-mM NaCl, 1-mM EDTA, and 1.5-mM CaCl2, and containing 1% DMSO as a cosolvent.
In FIG. 1(d), the reaction was carried out in the absence of 1.5-mM CaCl2, and in FIG. 1(e), the reaction was carried out in the presence of 1-μM calpeptin.
The reaction temperature was 25° C. in FIGS. 1(b), 1(d), and 1(e), and 37° C. in FIG. 1(c).
In FIGS. 2(b) and 2(c), the reaction was carried out in a 0.75-mL of 20-mM HEPES buffer solution (pH 7.4) containing 100-μM DTT, 10% glycerol, 0.1% CHAPS, 100-mM NaCl, 1-mM EDTA, and 1.5-mM CaCl2, and containing 1% DMSO as a cosolvent. In FIG. 2(c), the reaction was carried out in the presence of 1-μM calpeptin, and in FIG. 2(b), the reaction was carried out in the absence of calpeptin.
The reaction temperature was 25° C. in FIGS. 2(b) and 2(c), and the excitation wavelength was 593 nm.

[2] = test system: Calpain activity in A549 cells; assay: Imaging of calpain activity in A549 cells (confocal microscope); assay type: cell-based; conditions: 2-μM Suc-LLVY-SiR600, 20 minutes, HBSS, 37° C.
Protocol: (§1) A549 cells were incubated for 10 minutes at 37° C. using (a) Hank's balanced salt solution (HBSS) containing DMSO as a control, and (b) HBSS containing 20-μM calpeptin, and further incubation for 20 minutes was carried out in 2-μM Suc-LLVY-SiR600. A fluorescence image and a differential interference image were then taken using a confocal microscope. The scale bar in the drawings is 20 μm.
(§2) Statistical analysis was carried out using Student's t-test (n=18).

[3] = test system: Calpain activity in HeLa cells; assay: Imaging of calpain activity in HeLa cells (confocal microscope); assay type: cell-based
Protocol: as §1, with “Hela” for “A549”, “[…]” for “20-μM”
as §2

| Compound | Absmax [1] | Emmax [1] | Φn [1] | ε [1] | increase in fluorescence in a solution that does not contain Ca^2+ (calpain-1; probe 2 μM, 5 μg calpain-1, 10 to 60 minutes, absence of 1.5-mM CaCl2, 25° C.) | fluorescence after the reaction with calpain-1 (calpain-1; probe 2 μM, 5 μg calpain-1, 180 minutes, HEPES buffer pH 7.4 with 1.5-mM CaCl2, 25° C., excitation 593 nm) | fluorescence before the reaction with calpain-1 (calpain-1; probe 2 μM, excitation 593 nm, before addition of calpain-1, 25° C.) | absorption of light near maximum absorption (593 nm) of 2MeSiR600 ([1]; near 593 nm) | visualization of calpain activity in A549 cells [2] | visualization of calpain activity in HeLa cells ([3]; 2-μM Suc-LLVY-SiR600, 20 minutes, HBSS, 37° C.) | increase in fluorescence of Boc-LM-SiR600 with calpain-1 when calpeptin was added (calpain-1; 1-μM calpeptin, Boc-LM-SiR600 2 μM, 5 μg calpain-1, 25° C.) | increase in fluorescence of Suc-LLVY-SiR600 with calpain-1 when calpeptin is added (calpain-1; 1-μM calpeptin, Suc-LLVY-SiR600 2 μM, 5 μg calpain-1, 25° C.) | fluorescence intensity in HeLa cells on addition of calpeptin ([3]; 20-11M calpeptin 10 minutes at 37° C., then 2-μM Suc-LLVY-SiR600 20 minutes) |
| --- | --- | --- | --- | --- | --- | --- | --- | --- | --- | --- | --- | --- | --- |
| 2Me SiR600 [reference compound] | 593 nm | 613 nm | 0.38 | 91,000 M^−1cm^−1 |  |  |  |  |  |  |  |  |  |
| Cc1ccccc1C1=C2C=CC(=N)C=C2[Si](C)(C)c2cc(NC(=O)[C@H](Cc3ccc(O)cc3)NC(=O)[C@@H](NC(=O)[C@H](CC(C)C)NC(=O)[C@H](CC(C)C)NC(=O)CCC(=O)O)C(C)C)ccc21 [Suc-LLVY-SiR600] (Suc-LLVY-X1) | 497 nm | 590 nm | 0.03 | 25,000 M^−1cm^−1 | an increase in fluorescence does not occur | high-intensity fluorescence was observed | fluorescence was mostly unobserved | did not absorb light | calpain activity in cells was successfully visualized | calpain activity in HeLa cells can be monitored |  |  |  |
| CCCC[C@@H](C=O)NC(=O)[C@H](CC(C)C)NC(=O)OCc1ccccc1 [calpeptin, reference compound] |  |  |  |  |  |  |  |  |  |  | an increase in fluorescence did not occur | an increase in fluorescence does not occur | fluorescence intensity in the cells was reduced |
